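Where inhibition never reached the appropriate level, the endpoint shown equals the highest concentration tested. Otherwise, values were interpolated linearly from a five-concentration, 48-hour dose response in 96-well plates. The concentration for 50% growth inhibition is given as GI50. TGI marks complete inhibition of growth.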
Experiments:
Test in all cases: inhibition of tumour cell growth, NCI panel, 48 h
[1] = system: MALME-3M melanoma
[2] = system: HS 578T breast
[3] = system: ACHN renal
[4] = system: IGROV1 ovarian
[5] = system: CCRF-CEM leukemia
[6] = system: OVCAR-4 ovarian
[7] = system: A549 NSCLC
[8] = system: HOP-92 NSCLC
[9] = system: NCI-H460 lung
[10] = system: SK-MEL-2 melanoma
[11] = system: UACC-257 melanoma
[12] = system: EKVX NSCLC
[13] = system: HL-60(TB) leukemia
[14] = system: HT29 colon
[15] = system: MCF7 breast
[16] = system: SK-OV-3 ovarian
[17] = system: SW-620 colon
[18] = system: PC-3 prostate
[19] = system: A498 renal
[20] = system: HOP-62 NSCLC
[21] = system: HCT-15 colon
[22] = system: SK-MEL-5 melanoma
[23] = system: MOLT-4 leukemia
[24] = system: SNB-75 CNS
[25] = system: SK-MEL-28 melanoma
[26] = system: OVCAR-8 ovarian
[27] = system: SF-268 CNS
[28] = system: BT-549 breast
[29] = system: MDA-MB-231 breast
[30] = system: TK-10 renal
[31] = system: U251 CNS
[32] = system: OVCAR-5 ovarian
[33] = system: CAKI-1 renal
[34] = system: SNB-19 CNS
[35] = system: M14 melanoma
[36] = system: MDA-MB-435
[37] = system: 786-0 renal
[38] = system: K-562 leukemia
[39] = system: DU-145 prostate
[40] = system: T-47D breast
[41] = system: UACC-62 melanoma
[42] = system: SF-295 CNS
[43] = system: RPMI-8226 leukemia
[44] = system: RXF 393 renal
[45] = system: NCI/ADR-RES ovarian
[46] = system: SR leukemia
[47] = system: HCT-116 colon
[48] = system: SF-539 CNS
[49] = system: COLO 205 colon
[50] = system: UO-31 renal
[51] = system: NCI-H522 lung
[52] = system: KM12 colon
[53] = system: NCI-H23 lung
[54] = system: SN12C renal
[55] = system: OVCAR-3 ovarian
[56] = system: NCI-H226 lung
[57] = system: LOX IMVI melanoma
[58] = system: HCC-2998 colon

CN1CCC(n2cnc(-c3ccc(F)cc3)c2-c2ccnc(NCCO)n2)CC1
GI50 [1]: 23.8 µM | TGI [1]: > 25 µM | GI50 [2]: > 25 µM | TGI [2]: > 25 µM | GI50 [3]: 12.1 µM | TGI [3]: > 25 µM | GI50 [4]: 18.1 µM | TGI [4]: > 25 µM | GI50 [5]: > 25 µM | TGI [5]: > 25 µM | GI50 [6]: > 20.9 µM | TGI [6]: > 25 µM | GI50 [7]: 11.9 µM | TGI [7]: > 25 µM | GI50 [8]: 5.43 µM | TGI [8]: > 25 µM | GI50 [9]: 9.54 µM | TGI [9]: > 25 µM | GI50 [10]: > 25 µM | TGI [10]: > 25 µM | GI50 [11]: > 25 µM | TGI [11]: > 25 µM | GI50 [12]: > 23.2 µM | TGI [12]: > 25 µM | GI50 [13]: > 25 µM | TGI [13]: > 25 µM | GI50 [14]: 10 µM | TGI [14]: > 25 µM | GI50 [15]: 3.78 µM | TGI [15]: > 25 µM | GI50 [16]: > 25 µM | TGI [16]: > 25 µM | GI50 [17]: 15.8 µM | TGI [17]: > 25 µM | GI50 [18]: > 25 µM | TGI [18]: > 25 µM | GI50 [19]: 14.8 µM | TGI [19]: > 25 µM | GI50 [20]: > 25 µM | TGI [20]: > 25 µM | GI50 [21]: 20.7 µM | TGI [21]: > 25 µM | GI50 [22]: 17.2 µM | TGI [22]: > 25 µM | GI50 [23]: > 25 µM | TGI [23]: > 25 µM | GI50 [24]: 12.3 µM | TGI [24]: > 25 µM | GI50 [25]: > 25 µM | TGI [25]: > 25 µM | GI50 [26]: 18.4 µM | TGI [26]: > 25 µM | GI50 [27]: 18.2 µM | TGI [27]: > 25 µM | GI50 [28]: > 25 µM | TGI [28]: > 25 µM | GI50 [29]: > 25 µM | TGI [29]: > 25 µM | GI50 [30]: > 20.3 µM | TGI [30]: > 25 µM | GI50 [31]: 12.7 µM | TGI [31]: > 25 µM | GI50 [32]: > 25 µM | TGI [32]: > 25 µM | GI50 [33]: > 17.9 µM | TGI [33]: > 25 µM | GI50 [34]: > 25 µM | TGI [34]: > 25 µM | GI50 [35]: > 25 µM | TGI [35]: > 25 µM | GI50 [36]: 11.5 µM | TGI [36]: > 25 µM | GI50 [37]: > 23.9 µM | TGI [37]: > 25 µM | GI50 [38]: 18.3 µM | TGI [38]: > 25 µM | GI50 [39]: 22.3 µM | TGI [39]: > 25 µM | GI50 [40]: > 25 µM | TGI [40]: > 25 µM | GI50 [41]: > 21.6 µM | TGI [41]: > 25 µM | GI50 [42]: > 19.8 µM | TGI [42]: > 25 µM | GI50 [43]: > 25 µM | TGI [43]: > 25 µM | GI50 [44]: > 25 µM | TGI [44]: > 25 µM | GI50 [45]: > 25 µM | TGI [45]: > 25 µM | GI50 [46]: 23.7 µM | TGI [46]: > 25 µM | GI50 [47]: 14.5 µM | TGI [47]: > 25 µM | GI50 [48]: > 25 µM | TGI [48]: > 25 µM | GI50 [49]: 8.86 µM | TGI [49]: > 25 µM | GI50 [50]: 13.6 µM | TGI [50]: > 25 µM | GI50 [51]: > 17.7 µM | TGI [51]: > 25 µM | GI50 [52]: 16.7 µM | TGI [52]: > 25 µM | GI50 [53]: > 25 µM | TGI [53]: > 25 µM | GI50 [54]: > 18.9 µM | TGI [54]: > 25 µM | GI50 [55]: > 23.4 µM | TGI [55]: > 25 µM | GI50 [56]: > 25 µM | TGI [56]: > 25 µM | GI50 [57]: 13.8 µM | TGI [57]: > 25 µM | GI50 [58]: > 25 µM | TGI [58]: > 25 µM

COc1ccc(/C(C#N)=C/c2ccccc2OC)cc1
GI50 [1]: 17.1 µM | TGI [1]: > 100 µM | GI50 [2]: 14.3 µM | TGI [2]: > 100 µM | GI50 [3]: 32.1 µM | TGI [3]: > 100 µM | GI50 [4]: 8.82 µM | TGI [4]: > 100 µM | GI50 [5]: 3.34 µM | TGI [5]: 30.3 µM | GI50 [6]: 32.5 µM | TGI [6]: > 100 µM | GI50 [7]: 6.19 µM | TGI [7]: > 100 µM | GI50 [8]: 4.57 µM | TGI [8]: 70.8 µM | GI50 [9]: 5.89 µM | TGI [9]: > 100 µM | GI50 [10]: 4.68 µM | TGI [10]: 32.9 µM | GI50 [11]: 12.4 µM | TGI [11]: > 100 µM | GI50 [12]: 41.1 µM | TGI [12]: > 100 µM | GI50 [13]: 5.25 µM | TGI [13]: > 100 µM | GI50 [14]: 3.95 µM | TGI [14]: 18.3 µM | GI50 [15]: 4.3 µM | TGI [15]: > 100 µM | GI50 [16]: 19.4 µM | TGI [16]: > 100 µM | GI50 [17]: 3.78 µM | TGI [17]: > 100 µM | TGI [18]: > 100 µM | GI50 [19]: 5.37 µM | TGI [19]: > 100 µM | GI50 [20]: 19.9 µM | TGI [20]: > 100 µM | GI50 [21]: 6.25 µM | TGI [21]: > 100 µM | GI50 [22]: 9.25 µM | TGI [22]: > 100 µM | GI50 [23]: 5.49 µM | TGI [23]: > 100 µM | GI50 [24]: 4.07 µM | TGI [24]: 32.8 µM | GI50 [25]: 17.5 µM | TGI [25]: > 100 µM | GI50 [26]: 25.2 µM | TGI [26]: > 100 µM | GI50 [27]: 35.5 µM | TGI [27]: > 100 µM | GI50 [28]: 5.64 µM | TGI [28]: > 100 µM | GI50 [29]: 7.02 µM | TGI [29]: > 100 µM | GI50 [30]: 12.4 µM | TGI [30]: > 100 µM | GI50 [31]: 4.63 µM | TGI [31]: 78.4 µM | GI50 [32]: 55.4 µM | TGI [32]: > 100 µM | GI50 [33]: 6.49 µM | TGI [33]: > 100 µM | GI50 [34]: 30.3 µM | TGI [34]: > 100 µM | GI50 [35]: 4.8 µM | TGI [35]: 60.9 µM | GI50 [36]: 1.95 µM | TGI [36]: 5.72 µM | GI50 [37]: 15.2 µM | TGI [37]: > 100 µM | GI50 [38]: 4.11 µM | TGI [38]: > 100 µM | GI50 [39]: 27.7 µM | TGI [39]: > 100 µM | GI50 [40]: 10 µM | TGI [40]: > 100 µM | GI50 [41]: 7.36 µM | TGI [41]: > 100 µM | GI50 [42]: 29.1 µM | TGI [42]: > 100 µM | GI50 [43]: 9.02 µM | TGI [43]: 46.2 µM | GI50 [44]: 5.4 µM | TGI [44]: 27.4 µM | GI50 [45]: 3.66 µM | TGI [45]: > 100 µM | GI50 [46]: 2.95 µM | TGI [46]: 15.1 µM | GI50 [47]: 4.46 µM | TGI [47]: > 100 µM | GI50 [48]: 20.5 µM | TGI [48]: > 100 µM | GI50 [49]: 5.96 µM | TGI [49]: 32.4 µM | GI50 [50]: 17 µM | TGI [50]: > 100 µM | GI50 [51]: 4.85 µM | TGI [51]: 32.3 µM | GI50 [52]: 5.04 µM | TGI [52]: > 100 µM | GI50 [53]: 18.8 µM | TGI [53]: > 100 µM | GI50 [54]: 21.1 µM | TGI [54]: > 100 µM | GI50 [55]: 7.22 µM | TGI [55]: > 100 µM | GI50 [56]: 17.7 µM | TGI [56]: > 100 µM | GI50 [57]: 6.6 µM | TGI [57]: > 100 µM | GI50 [58]: 14.5 µM | TGI [58]: > 100 µM
